In patent US20250206757A1 (GASHERBRUM BIO, INC., priority 2022, published 2025) one finds EC50 data, which are given here for 11 compounds.

SMILES strings stand for the structures. Where only a bound is given, the exact number is not on record here.

Chain of GLP-1 Receptor (P43220 24-463): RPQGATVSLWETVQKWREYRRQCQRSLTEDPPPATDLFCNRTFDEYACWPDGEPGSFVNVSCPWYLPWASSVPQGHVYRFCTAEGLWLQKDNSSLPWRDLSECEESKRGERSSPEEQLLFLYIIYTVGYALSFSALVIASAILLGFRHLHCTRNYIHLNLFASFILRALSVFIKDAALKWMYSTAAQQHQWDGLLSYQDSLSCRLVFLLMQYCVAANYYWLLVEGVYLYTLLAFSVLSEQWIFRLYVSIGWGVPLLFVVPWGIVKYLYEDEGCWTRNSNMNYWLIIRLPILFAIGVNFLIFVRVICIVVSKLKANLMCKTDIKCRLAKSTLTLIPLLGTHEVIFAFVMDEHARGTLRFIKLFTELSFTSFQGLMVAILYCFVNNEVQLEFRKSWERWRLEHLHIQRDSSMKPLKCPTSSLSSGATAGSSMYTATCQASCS

The assay has as its target GLP-1 Receptor (Homo sapiens, UniProt P43220). The assay is described as follows: GLP-1R agonist cAMP stimulation assay (HEK293/GLP1R/CRE-LUC cells, HTRF cAMP dynamic 2 kit). The settings on record: HEK293/CRE-Luc cell line stably expressing the GLP-1 Receptor; 30 min incubation at 37° C. Type of assay: cell-based. The method in brief:
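HEK293 cells stably expressing GLP-1R with CRE-Luc, 1000 cells/well in DPBS with 0.5 mM IBMX and 0.10% BSA, exposed to half-log compound dilutions for 30 min at 37 °C. cAMP measured by HTRF (665/615 nm) after 1 h at room temperature.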
`N#Cc1nnc(-c2cc3nc(CN4CCc5cc(Cl)c(OCc6c(F)cc(Cl)cc6F)nc5C4)n(C[C@@H]4CCO4)c3cn2)[nH]1` [Compound 9, 5-[2-({3-chloro-2-[(4-chloro-2,6-difluorophenyl)methoxy]-5,6,7,8-tetrahydro-1,7-naphthyridin-7-yl}methyl)-3-{[(2S)-oxetan-2-yl]methyl}-3H-imidazo[4,5-c]pyridin-6-yl]-4H-1,2,4-triazole-3-carbonitrile] gave an EC50 of less than 1 nM.
To `N#Cc1nnc(-c2cc3nc(CN4CCc5cc(C(F)(F)F)c(NCc6ccc(Cl)cc6F)nc5C4)n(C[C@@H]4CCO4)c3cn2)[nH]1` [Compound 108, 5-{2-[(2-{[(4-chloro-2-fluorophenyl)methyl]amino}-3-(trifluoromethyl)-5,6,7,8-tetrahydro-1,7-naphthyridin-7-yl)methyl]-3-{[(2S)-oxetan-2-yl]methyl}-3H-imidazo[4,5-c]pyridin-6-yl}-4H-1,2,4-triazole-3-carbonitrile] belongs less than 1 nM; to `O=c1[nH]c(-c2cnc3c(c2)nc(CN2CCc4cc(C(F)(F)F)c(OCc5ccc(Cl)cc5F)nc4C2)n3C[C@@H]2CCO2)no1` [Compound 29, 3-[2-({2-[(4-chloro-2-fluorophenyl)methoxy]-3-(trifluoromethyl)-5,6,7,8-tetrahydro-1,7-naphthyridin-7-yl}methyl)-3-{[(2S)-oxetan-2-yl]methyl}-3H-imidazo[4,5-b]pyridin-6-yl]-4,5-dihydro-1,2,4-oxadiazol-5-one], less than 1 nM; to `Cc1cc2c(nc1OCc1c(F)cc(Cl)cc1F)CN(Cc1nc3cc(-c4nnc(C(F)(F)F)[nH]4)cnc3n1C[C@@H]1CCO1)CC2` [Compound 51, 2-[(4-chloro-2,6-difluorophenyl)methoxy]-3-methyl-7-[(3-{1[(2S)-oxetan-2-yl]methyl}-6-[5-(trifluoromethyl)-4H-1,2,4-triazol-3-yl]-3H-imidazo[4,5-b]pyridin-2-yl)methyl]-5,6,7,8-tetrahydro-1,7-naphthyridine], less than 1 nM.
Consider `NC(=O)c1nnc(-c2cc3nc(CN4CCc5cc(C(F)(F)F)c(NCc6ccc(Cl)cc6F)nc5C4)n(C[C@@H]4CCO4)c3cn2)[nH]1` [Compound 107, 5-{2-[(2-{[(4-chloro-2-fluorophenyl)methyl]amino}-3-(trifluoromethyl)-5,6,7,8-tetrahydro-1,7-naphthyridin-7-yl)methyl]-3-{[(2S)-oxetan-2-yl]methyl}-3H-imidazo[4,5-c]pyridin-6-yl}-4H-1,2,4-triazole-3-carboxamide], for which the EC50 is less than 1 nM.
Compound `O=C(O)c1ccc2c(c1)nc(CN1CCc3cc(C(F)(F)F)c(OCc4ccc(Cl)cc4F)nc3C1)n2C[C@@H]1CCO1` [Compound 28, 2-({2-[(4-chloro-2-fluorophenyl)methoxy]-3-(trifluoromethyl)-5,6,7,8-tetrahydro-1,7-naphthyridin-7-yl}methyl)-1-{[(2S)-oxetan-2-yl]methyl}-1H-1,3-benzodiazole-5-carboxylic acid] showed an EC50 of less than 1 nM.
To `N#Cc1ccc(COc2nc3c(cc2C(F)(F)F)CCN(Cc2nc4cc(-c5nnc(C(F)(F)F)[nH]5)ncc4n2C[C@@H]2CCO2)C3)c(F)c1` [Compound 75, 3-fluoro-4-[({7-[(3-{[(2S)-oxetan-2-yl]methyl}-6-[5-(trifluoromethyl)-4H-1,2,4-triazol-3-yl]-3H-imidazo[4,5-c]pyridin-2-yl)methyl]-3-(trifluoromethyl)-5,6,7,8-tetrahydro-1,7-naphthyridin-2-yl}oxy)methyl]benzonitrile] belongs less than 1 nM; to `O=c1[nH]c(-c2cc3nc(CN4CCc5cc(C(F)(F)F)c(NCc6c(F)cc(Cl)cc6F)nc5C4)n(C[C@@H]4CCO4)c3cn2)no1` [Compound 105, 3-{2-[(2-{[(4-chloro-2,6-difluorophenyl)methyl]amino}-3-(trifluoromethyl)-5,6,7,8-tetrahydro-1,7-naphthyridin-7-yl)methyl]-3-{[(2S)-oxetan-2-yl]methyl}-3H-imidazo[4,5-c]pyridin-6-yl}-4,5-dihydro-1,2,4-oxadiazol-5-one], less than 1 nM.
In turn, `Cc1nnc(-c2cc3c(nc(CN4CCc5cc(C(F)(F)F)c(OCc6ccc(Cl)cc6F)nc5C4)n3C[C@@H]3CCO3)s2)[nH]1` [Compound 60, 2-[(4-chloro-2-fluorophenyl)methoxy]-7-{[5-(5-methyl-4H-1,2,4-triazol-3-yl)-1-{[(2S)-oxetan-2-yl]methyl}-1H-thieno[2,3-d]imidazol-2-yl]methyl}-3-(trifluoromethyl)-5,6,7,8-tetrahydro-1,7-naphthyridine] showed an EC50 of 1 to 300 nM.
`Fc1cc(Cl)ccc1COc1nc2c(cc1C(F)(F)F)CCN(Cc1nc3cc(-c4nnc(C(F)(F)F)[nH]4)ncc3n1C[C@@H]1CCOC1)C2` [Compound 77, 2-[(4-chloro-2-fluorophenyl)methoxy]-7-[(3-{1[(3S)-oxolan-3-yl]methyl}-6-[5-(trifluoromethyl)-4H-1,2,4-triazol-3-yl]-3H-imidazo[4,5-c]pyridin-2-yl)methyl]-3-(trifluoromethyl)-5,6,7,8-tetrahydro-1,7-naphthyridine]: the EC50 was 1 to 300 nM.
To `Cc1nnc(-c2cc3nc(CN4CCc5cc(C(F)(F)F)c(OCc6ccc(Cl)cc6)nc5C4)n(C[C@@H]4CCO4)c3cn2)[nH]1` [Compound 61, 2-[(4-chlorophenyl)methoxy]-7-{[6-(5-methyl-4H-1,2,4-triazol-3-yl)-3-{1[(2S)-oxetan-2-yl]methyl}-3H-imidazo[4,5-c]pyridin-2-yl]methyl}-3-(trifluoromethyl)-5,6,7,8-tetrahydro-1,7-naphthyridine] belongs less than 1 nM.
